From patent US20110118239A1, “PREPARATION AND ENANTIOMERIC SEPARATION OF 7-(3-PYRIDINYL)-1,7-DIAZASPIRO[4.4]NONANE AND NOVEL SALT FORMS OF THE RACEMATE AND ENANTIOMERS” (Targacept, Inc., priority 2008, published 2011)
Read-outs that look alike come from different tables or passages of the source.

Assays:
[1] = molecular target: Rat α4β2 (Rattus norvegicus, UniProt P09483+P12390); assay: Binding to rat α4β2 NNR (Ki)
Method: (§1) Binding and function of the compounds to relevant receptor sites was determined in accordance with the techniques described in PCT WO 2008/057938. Inhibition constants (Ki values), reported in nM, were calculated from the IC50 values using the method of Cheng et al., Biochem. Pharmacol. 22: 3099 (1973). […] Thus, the compounds of the present invention are selective modulators of the α4β2 NNR subtype.

[2] = molecular target: Human α4β2 (Homo sapiens, UniProt P17787+P43681); assay: Binding to human α4β2 NNR (Ki)
Chain of Human α4β2 (P43681 29-627 limits assumed): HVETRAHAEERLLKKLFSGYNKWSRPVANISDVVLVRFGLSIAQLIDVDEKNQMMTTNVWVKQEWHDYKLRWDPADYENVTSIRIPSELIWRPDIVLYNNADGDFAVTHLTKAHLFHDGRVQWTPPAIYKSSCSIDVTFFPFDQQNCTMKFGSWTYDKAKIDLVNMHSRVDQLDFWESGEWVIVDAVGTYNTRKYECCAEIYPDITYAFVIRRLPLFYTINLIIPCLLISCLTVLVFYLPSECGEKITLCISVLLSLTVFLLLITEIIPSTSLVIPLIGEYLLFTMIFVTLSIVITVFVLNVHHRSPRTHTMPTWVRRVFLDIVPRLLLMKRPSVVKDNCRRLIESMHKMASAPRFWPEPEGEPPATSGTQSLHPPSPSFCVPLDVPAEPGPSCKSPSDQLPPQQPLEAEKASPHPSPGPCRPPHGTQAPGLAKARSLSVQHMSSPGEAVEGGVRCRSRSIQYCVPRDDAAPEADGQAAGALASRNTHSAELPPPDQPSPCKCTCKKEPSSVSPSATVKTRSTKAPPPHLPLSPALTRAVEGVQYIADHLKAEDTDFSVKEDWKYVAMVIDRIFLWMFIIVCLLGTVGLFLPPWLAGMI
Chain of Human α4β2 (P17787 26-502): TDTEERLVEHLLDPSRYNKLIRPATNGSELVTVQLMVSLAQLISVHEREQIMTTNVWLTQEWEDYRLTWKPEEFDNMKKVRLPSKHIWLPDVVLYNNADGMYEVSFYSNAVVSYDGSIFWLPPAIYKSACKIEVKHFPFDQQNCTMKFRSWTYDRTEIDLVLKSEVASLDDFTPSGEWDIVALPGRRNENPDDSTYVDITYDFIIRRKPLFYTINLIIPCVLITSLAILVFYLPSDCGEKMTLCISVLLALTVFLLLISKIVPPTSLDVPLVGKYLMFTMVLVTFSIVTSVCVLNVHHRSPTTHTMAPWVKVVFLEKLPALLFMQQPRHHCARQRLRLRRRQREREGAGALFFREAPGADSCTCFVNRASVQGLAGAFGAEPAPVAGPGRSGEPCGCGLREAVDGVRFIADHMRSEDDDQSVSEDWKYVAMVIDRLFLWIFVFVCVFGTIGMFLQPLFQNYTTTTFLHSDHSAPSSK
Method: as §1

[3] = molecular target: Rat α7 (Rattus norvegicus, UniProt Q05941); assay: Binding to rat α7 NNR (Ki)
Chain of Rat α7 (Q05941 23-502): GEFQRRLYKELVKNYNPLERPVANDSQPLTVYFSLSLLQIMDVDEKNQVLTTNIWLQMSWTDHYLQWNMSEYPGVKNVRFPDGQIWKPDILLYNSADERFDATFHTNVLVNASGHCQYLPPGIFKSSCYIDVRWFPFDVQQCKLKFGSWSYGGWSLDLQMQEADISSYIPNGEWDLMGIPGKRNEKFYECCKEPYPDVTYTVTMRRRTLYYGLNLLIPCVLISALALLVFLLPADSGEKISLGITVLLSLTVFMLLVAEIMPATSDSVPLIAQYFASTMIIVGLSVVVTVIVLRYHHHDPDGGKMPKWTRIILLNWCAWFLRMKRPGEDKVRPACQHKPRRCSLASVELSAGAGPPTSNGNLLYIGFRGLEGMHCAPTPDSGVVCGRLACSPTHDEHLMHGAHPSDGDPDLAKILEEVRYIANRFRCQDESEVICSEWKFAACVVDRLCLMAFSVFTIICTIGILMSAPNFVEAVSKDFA
Method: as §1

[4] = molecular target: T1, human α4β2 NNRs (Homo sapiens, UniProt P17787+P43681); assay: Function at human α4β2 NNRs, SH-EP1/human a4b2 cells, FLIPR calcium; assay type: cell-based
T1 construct: expressed in transfected cells; host or cells: SH-EP1
T1 sequence (P43681 29-627 limits assumed): as the sequence (P43681 29-627 limits assumed) above
T1 sequence (P17787 26-502): as the sequence (P17787 26-502) above
Method: as §1
After the loading period, plates were equilibrated to room temperature and the cells exposed to the test article ([…]) or nicotine or buffer alone on a FLIPR (Molecular Devices). Fluorescence (at 485 nm) was monitored throughout the experiment. The test article change in fluorescence was compared to both a positive control (10 μM nicotine) and a negative control (buffer alone) to determine the percent response relative to that of nicotine.

[5] = molecular target: Human Ganglion (Homo sapiens, UniProt P30926+P32297); assay: Function at human ganglion subtype, single point 100 μM; assay type: cell-based
Chain of Human Ganglion (P32297 32-505): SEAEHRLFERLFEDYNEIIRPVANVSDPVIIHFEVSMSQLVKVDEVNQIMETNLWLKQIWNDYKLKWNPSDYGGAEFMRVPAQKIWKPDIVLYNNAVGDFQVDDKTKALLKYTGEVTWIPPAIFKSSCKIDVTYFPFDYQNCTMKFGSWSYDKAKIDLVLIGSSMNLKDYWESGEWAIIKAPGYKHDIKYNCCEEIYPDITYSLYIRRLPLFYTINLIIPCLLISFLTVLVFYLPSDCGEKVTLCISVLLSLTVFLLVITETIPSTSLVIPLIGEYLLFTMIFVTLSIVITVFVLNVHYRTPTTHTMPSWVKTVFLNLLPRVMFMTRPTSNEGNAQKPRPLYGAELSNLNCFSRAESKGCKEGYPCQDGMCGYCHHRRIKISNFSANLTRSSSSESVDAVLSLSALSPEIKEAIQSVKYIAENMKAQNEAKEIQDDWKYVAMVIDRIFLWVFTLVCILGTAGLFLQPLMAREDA
Chain of Human Ganglion (P30926 22-498): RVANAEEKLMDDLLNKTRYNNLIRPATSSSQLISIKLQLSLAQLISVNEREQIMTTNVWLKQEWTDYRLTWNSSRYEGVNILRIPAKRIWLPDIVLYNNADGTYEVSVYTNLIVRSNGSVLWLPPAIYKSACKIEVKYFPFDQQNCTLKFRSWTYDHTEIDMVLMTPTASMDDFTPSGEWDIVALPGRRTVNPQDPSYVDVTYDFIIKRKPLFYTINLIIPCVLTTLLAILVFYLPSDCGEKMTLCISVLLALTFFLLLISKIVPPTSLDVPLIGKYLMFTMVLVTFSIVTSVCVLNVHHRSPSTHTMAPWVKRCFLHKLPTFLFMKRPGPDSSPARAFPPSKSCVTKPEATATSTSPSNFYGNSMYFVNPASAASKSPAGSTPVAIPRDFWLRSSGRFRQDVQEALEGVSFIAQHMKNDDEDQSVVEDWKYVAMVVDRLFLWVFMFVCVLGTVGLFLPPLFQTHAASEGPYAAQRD
Method: as §1

[6] = molecular target: Human Muscle (Homo sapiens, UniProt P02708+P07510+Q07001); assay: Function at human muscle subtype, single point 100 μM; assay type: cell-based
Chain of Human Muscle (P02708 21-457): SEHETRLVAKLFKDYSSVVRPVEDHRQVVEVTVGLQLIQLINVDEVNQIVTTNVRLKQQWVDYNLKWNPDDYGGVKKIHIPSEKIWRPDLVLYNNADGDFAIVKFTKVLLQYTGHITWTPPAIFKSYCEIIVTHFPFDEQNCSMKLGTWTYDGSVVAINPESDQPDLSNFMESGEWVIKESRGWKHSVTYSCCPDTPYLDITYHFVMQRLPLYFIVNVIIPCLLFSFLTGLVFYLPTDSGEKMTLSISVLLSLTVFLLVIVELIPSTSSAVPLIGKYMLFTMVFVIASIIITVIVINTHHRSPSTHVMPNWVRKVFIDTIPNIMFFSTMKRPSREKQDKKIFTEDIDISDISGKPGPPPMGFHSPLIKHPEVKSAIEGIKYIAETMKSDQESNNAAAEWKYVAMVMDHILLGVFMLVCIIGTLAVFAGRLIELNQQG
Chain of Human Muscle (P11230 24-501 partner): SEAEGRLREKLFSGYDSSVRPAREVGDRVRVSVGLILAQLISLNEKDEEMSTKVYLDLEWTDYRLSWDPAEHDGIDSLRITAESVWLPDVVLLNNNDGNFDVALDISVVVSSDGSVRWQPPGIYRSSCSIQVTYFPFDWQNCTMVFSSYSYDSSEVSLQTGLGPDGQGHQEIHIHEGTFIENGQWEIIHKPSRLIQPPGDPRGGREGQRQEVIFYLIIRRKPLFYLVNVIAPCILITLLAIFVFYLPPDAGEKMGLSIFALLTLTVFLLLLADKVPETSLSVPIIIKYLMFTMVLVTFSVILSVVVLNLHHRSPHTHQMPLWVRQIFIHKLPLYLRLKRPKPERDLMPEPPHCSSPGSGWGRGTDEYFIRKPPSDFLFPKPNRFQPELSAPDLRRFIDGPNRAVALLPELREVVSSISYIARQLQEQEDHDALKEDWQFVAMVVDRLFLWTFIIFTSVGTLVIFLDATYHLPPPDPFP
Chain of Human Muscle (P07510 23-517): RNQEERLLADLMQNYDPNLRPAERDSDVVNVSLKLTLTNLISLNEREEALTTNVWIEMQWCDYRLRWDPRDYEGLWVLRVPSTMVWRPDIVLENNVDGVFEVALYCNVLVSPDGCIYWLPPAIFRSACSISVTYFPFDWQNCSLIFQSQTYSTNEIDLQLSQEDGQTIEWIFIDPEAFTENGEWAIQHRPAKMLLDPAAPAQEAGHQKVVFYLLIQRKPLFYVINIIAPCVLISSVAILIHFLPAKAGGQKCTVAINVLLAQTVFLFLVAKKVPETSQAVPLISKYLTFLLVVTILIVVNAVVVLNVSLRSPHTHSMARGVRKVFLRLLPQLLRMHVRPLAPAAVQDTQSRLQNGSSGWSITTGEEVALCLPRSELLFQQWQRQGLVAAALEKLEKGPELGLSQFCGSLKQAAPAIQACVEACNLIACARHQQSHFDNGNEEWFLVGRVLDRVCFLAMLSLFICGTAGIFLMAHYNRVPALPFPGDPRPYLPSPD
Chain of Human Muscle (Q07001 22-517): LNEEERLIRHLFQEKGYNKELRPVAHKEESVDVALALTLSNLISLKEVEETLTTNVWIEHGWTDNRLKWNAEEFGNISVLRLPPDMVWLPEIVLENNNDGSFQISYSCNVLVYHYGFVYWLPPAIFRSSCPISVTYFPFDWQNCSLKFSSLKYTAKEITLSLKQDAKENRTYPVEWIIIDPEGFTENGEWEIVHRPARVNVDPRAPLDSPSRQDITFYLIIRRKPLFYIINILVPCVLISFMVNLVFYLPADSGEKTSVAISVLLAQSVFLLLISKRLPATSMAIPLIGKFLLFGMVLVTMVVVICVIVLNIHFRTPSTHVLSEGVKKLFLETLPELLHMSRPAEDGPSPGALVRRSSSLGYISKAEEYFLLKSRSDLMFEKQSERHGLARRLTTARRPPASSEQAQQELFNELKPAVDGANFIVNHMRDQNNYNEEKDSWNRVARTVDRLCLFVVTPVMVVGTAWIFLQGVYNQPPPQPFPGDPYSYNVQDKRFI
Method: as §1

[7] = Single rising dose (SRD) study of Compound C, plasma pharmacokinetics of racemate and enantiomers; assay type: in vivo; settings: for t1/2 (mean) / Cmax / Tmax / AUC(0-inf) / half-life: plasma; for t1/2 (mean): Table 3; for Cmax / Tmax / AUC(0-inf) / half-life: human; for AUC(0-inf): read-out: AUCinf (mean)
Method: A single, rising dose (SRD) study was performed with Compound C (the racemate). Plasma samples were analyzed for the content of the two enantiomers, Compound A (substantially pure R), Compound B (substantially pure S). Three dose groups (Compound C) were analyzed, 50, 100, and 400 mg, and four subjects were randomly selected from the 6 subjects tested to receive active treatment in each cohort examined in the SRD study.

[8] = tested on: mice; assay: Seizure induction after acute dose, mice; assay type: in vivo; settings: female mice; acute oral dose of 400 mg/kg
Source text: For example, preclinically, Compound C induced seizures following acute doses: […]

[9] = tested on: rats; assay: Seizure/convulsion induction after acute dose, rats; assay type: in vivo
Method: For example, preclinically, Compound C induced seizures following acute doses:
Likewise, Compound B induced convulsion in 1/6 male rats following an acute oral dose of 300 mg/kg.
In fact, the effect of Compound A was not statistically different from the vehicle control.

[10] = tested on: nicotinic; assay: Standard receptor screen at 10 μM: nicotinic; assay type: binding; settings: hydrochloride salt
Method: (§2) Both Compound A, (R)-7-(3-pyridinyl)-1,7-diazaspiro[4.4]nonane, and Compound B, (S)-7-(3-pyridinyl)-1,7-diazaspiro[4.4]nonane, each as their hydrochloride salts, were screened, at 10 μM concentration, against a standard set of receptors. […] Thus, the two stereoisomers differentiate from one another in terms of their non-nicotinic receptor binding characteristics. This differentiation is believed to translate into a differentiation between the ability of each of (R)-7-(3-pyridinyl)-1,7-diazaspiro[4.4]nonane and (S)-7-(3-pyridinyl)-1,7-diazaspiro[4.4]nonane to treat various disease states, including, for example, the ability of Compound A to enhance desensitization of α4β2 NNRs.

[11] = molecular target: histamine H1 (Homo sapiens, UniProt P35367); assay: Standard receptor screen at 10 μM: histamine H1; assay type: binding; settings: hydrochloride salt, read-out: inhibition at histamine H1 receptors
Chain of histamine H1 (P35367 whole entry): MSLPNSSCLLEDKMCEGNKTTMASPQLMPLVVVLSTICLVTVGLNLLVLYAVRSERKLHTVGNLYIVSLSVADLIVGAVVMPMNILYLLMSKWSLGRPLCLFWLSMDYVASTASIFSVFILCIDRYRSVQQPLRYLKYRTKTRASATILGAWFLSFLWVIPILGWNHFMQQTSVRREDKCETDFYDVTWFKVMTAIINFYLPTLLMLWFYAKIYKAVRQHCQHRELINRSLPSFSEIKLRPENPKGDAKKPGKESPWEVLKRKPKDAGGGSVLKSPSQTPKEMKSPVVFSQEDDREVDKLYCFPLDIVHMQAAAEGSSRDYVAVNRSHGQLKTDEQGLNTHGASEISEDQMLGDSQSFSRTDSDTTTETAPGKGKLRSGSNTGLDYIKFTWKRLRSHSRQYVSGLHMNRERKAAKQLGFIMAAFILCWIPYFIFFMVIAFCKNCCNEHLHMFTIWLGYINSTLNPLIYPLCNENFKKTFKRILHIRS
Method: as §2

[12] = tested on: rat; assay: Anxiety model, elevated plus maze (EPM); assay type: in vivo; settings: 0.02, 0.06, and 0.21 mg/kg i.p. 30 minutes before the test, FIG. 1
Source text: The method, which detects anxiolytic activity, follows that described by Handley S. L. and Mithani S., Effects of alpha-adrenoceptor agonists and antagonists in a maze-exploration model of fear-motivated behaviour, Naunyn-Schmied. Arch. Pharmacol., 327, 1-5, 1984.
Rodents avoid open spaces (the open arms of an elevated plus-maze). Anxiolytics increase exploratory activity in the open arms. The maze consisted of 4 arms of equal length and width arranged in the form of a plus sign (+). Two opposite arms were enclosed by walls (closed arms). The two other arms had no walls (open arms). The maze was raised above the floor. A rat was placed in the centre of the plus-maze and left to explore for 5 minutes. The number of entries into the open and closed arms and the time spent in the open arms were recorded.
Ten (10) rats were studied per group. The test was performed blind. Compound A was evaluated at 0.02, 0.06, and 0.21 mg/kg, administered i.p. 30 minutes before the test, and compared with a vehicle control group. Clobazam, administered under the same experimental conditions, was used as reference substance. The experiment therefore included […].
Data were analyzed by comparing the treated groups with the control group using unpaired tests.

[13] = tested on: A/J mice; assay: Depression model, tail suspension (TS); assay type: in vivo; settings: 0.1 mg/kg (p-hydroxybenzoate), 10 min test
Method: On the day of the test, A/J mice were brought to acclimate to the testing room for one hour. Eight animals were tested in each run. Following pretreatment with vehicle, desipramine (20 mg/kg) or Compound A, p-hydroxybenzoate (0.1, 0.3, and 1 mg/kg), a piece of transparent (Scotch) tape was attached to the tail of each mouse from about mid-tail with approximately 2 cm of tape past the end of the tail. The mice were then placed in the tail suspension chambers (white polyvinylchloride cubicles measuring 33×33×31.75 cm; Med Associates Inc., St Albans, Vt.). The mice were suspended from the hook of the TS force transducer via the tail tape. The force transducer transmitted the movements of the mouse to a recording device connected to a computer. Immobility time, struggle time, and intensity were automatically recorded for each min during the 10 min test period. Upon completion of the TS test, the mice were returned to their home cage and then to the animal colony. The TS chambers were cleaned between sessions. Data were analyzed by repeated measures and one-way analysis of variance (ANOVA) followed by Fisher PLSD post-hoc comparisons. An effect was considered significant if p<0.05.

[14] = tested on: animal models of depression and anxiety; assay: Validated animal models of depression and anxiety (summary statement); settings: in vivo
[15] = SH-EP1/human a4b2 cells, FLIPR calcium, relative to 10 μM nicotine, read-out: Human α4β2 Emax (% of nic resp)
[16] = po, 50 mg Compound C (n = 4), read-out: Mean (SD) Terminal Elimination Half-life (converted)
[17] = po, 100 mg Compound C (n = 4), read-out: Mean (SD) Terminal Elimination Half-life (converted)
[18] = po, 400 mg Compound C (n = 4), read-out: Mean (SD) Terminal Elimination Half-life (converted)

| Structure (SMILES) | Emax [4, 15] [%] | Human Ganglion SP (100 μM) [5] | Human Muscle SP (100 μM) [6] | t1/2 (mean) ([7]; 50 mg Compound C (n = 4)) [h] | t1/2 (mean) ([7]; 100 mg Compound C (n = 4)) [h] | t1/2 (mean) ([7]; 400 mg Compound C (n = 4)) [h] | Cmax ([7]; po, 50 mg Compound C (n = 4)) [ng/mL] | Tmax ([7]; po, 50 mg Compound C (n = 4)) [h] | AUC(0-inf) ([7]; po, 50 mg Compound C (n = 4)) [ng·h/mL] | half-life [7, 16] [h] | Cmax ([7]; po, 100 mg Compound C (n = 4)) [ng/mL] | Tmax ([7]; po, 100 mg Compound C (n = 4)) [h] | AUC(0-inf) ([7]; po, 100 mg Compound C (n = 4)) [ng·h/mL] | half-life [7, 17] [h] | Cmax ([7]; po, 400 mg Compound C (n = 4)) [ng/mL] | Tmax ([7]; po, 400 mg Compound C (n = 4)) [h] | AUC(0-inf) ([7]; po, 400 mg Compound C (n = 4)) [ng·h/mL] | half-life [7, 18] [h] | other results |
| --- | --- | --- | --- | --- | --- | --- | --- | --- | --- | --- | --- | --- | --- | --- | --- | --- | --- | --- | --- |
| c1cncc(N2CCC3(CCCN3)C2)c1 (racemic) [Compound C, 7-(3-pyridinyl)-1,7-diazaspiro[4.4]nonane] | 43 | 15 | 22 | 24.8 | 21.1 | 18.5 | 21.8 | 4.38 | 473 | 24.8 | 44.7 | 31.1 | 741 | 21.1 | 295 | 2 | 3680 | 18.5 | Ki [1]: 0.068 µM; Ki [2]: 0.034 µM; Ki [3]: > 10 µM; EC50 ([4]; SH-EP1/human a4b2 cells, FLIPR calcium, read-out: Human α4β2 EC50): 9.1 µM; induced seizures (animals affected) [8]: 1/5 female mice; induced seizures (animals affected) ([9]; female rats, acute IV dose of 100 mg/kg): 4/5 female rats; induced seizures (animals affected) ([9]; female rats, acute oral dose of 200 mg/kg): 1/5 female rats; induced seizures (animals affected) ([9]; female rats, acute oral dose of 800 mg/kg): 1/5 female rats; induced seizures (animals affected) ([9]; male rats, acute IV dose of 100 mg/kg): 1/5 male rats; induced seizures (animals affected) ([9]; male rats, acute oral dose of 800 mg/kg): 1/5 male rats |
| c1cncc(N2CC[C@]3(CCCN3)C2)c1 [Compound A, (R)-7-(3-pyridinyl)-1,7-diazaspiro[4.4]nonane] | 9 | 3 | 6 | 27.5 | 23.7 | 22.4 | 10.3 | 4.38 | 256 | 27.5 | 22.7 | 3.25 | 451 | 23.7 | 163 | 2 | 2420 | 22.4 | Ki ([1]; read-out: Rat α4β2 Ki): 0.074 µM; Ki ([2]; read-out: Human α4β2 Ki): 0.04 µM; Ki ([3]; read-out: Rat α7 Ki): 5.4 µM; Emax ([4]; SH-EP1, read-out: Emax at human α4β2 NNRs): 9%; EC50 ([4]; read-out: EC50 at human α4β2 NNRs): 84 µM; inhibition at nicotinic receptors [10]: 99 % inhibition; inhibition at 10 µM [11]: 66%; Activity in the EPM [12]: anxiolytic-like activity; struggle intensity compared to saline [13]: increased struggle intensity; total time immobile compared to saline [13]: decreased total time immobile; Efficacy in multiple validated animal models of depression and anxiety [14]: demonstrated efficacy; half-life ([7]; oral, after Compound C 50, 100, 400 mg, read-out: terminal elimination half-life longer than that of Compound B (converted)): ~6 h; share of total exposure (Cmax and AUCinf) compared to the racemate, Compound C ([7]; oral administration of Compound C): approximately half; effect on seizure induction ([9]; under the same conditions (as Compound B: acute oral dose of 300 mg/kg, male rats)): no effect on seizure induction |
